Test results published in PubChem BioAssay AID1259407 (Chemical Carcinogenesis Research Information System (CCRIS), 2018).
Calls of active or inactive are those of the source. How the calls were made is not given here.

Test system: CCRIS mutagenicity, Ames/micronucleus/aberration tests
Assay: CCRIS mutagenicity studies
[1] = Test System: AMES SALMONELLA TYPHIMURIUM, Strain/Indicator: TA98, Metabolic Activation: NONE, Method: STANDARD PLATE
[2] = Test System: AMES SALMONELLA TYPHIMURIUM, Strain/Indicator: TA100, Metabolic Activation: NONE, Method: STANDARD PLATE
[3] = Test System: AMES SALMONELLA TYPHIMURIUM, Strain/Indicator: TA100, Metabolic Activation: NONE, Method: PREINCUBATION

Structure (SMILES): CC(C)(c1ccc(OCC(O)CO)cc1)c1ccc(OCC(O)CO)cc1 (stereo unspecified)
- mutagenic call [1]: inactive; negative
- mutagenic call (Test System: AMES SALMONELLA TYPHIMURIUM, Strain/Indicator: TA98, Metabolic Activation: RAT LIVER S-9, PHENOBARBITAL/METHYLCHOLANTHRENE (4%), Method: STANDARD PLATE): inactive; negative
- mutagenic call [2]: inactive; negative
- mutagenic call (Test System: AMES SALMONELLA TYPHIMURIUM, Strain/Indicator: TA100, Metabolic Activation: RAT LIVER S-9, PHENOBARBITAL/METHYLCHOLANTHRENE (4%), Method: STANDARD PLATE): inactive; negative
- mutagenic call (Test System: AMES SALMONELLA TYPHIMURIUM, Strain/Indicator: TA1535, Metabolic Activation: NONE, Method: STANDARD PLATE): inactive; negative
- mutagenic call (Test System: AMES SALMONELLA TYPHIMURIUM, Strain/Indicator: TA1535, Metabolic Activation: RAT LIVER S-9, PHENOBARBITAL/METHYLCHOLANTHRENE (10%), Method: STANDARD PLATE): inactive; negative
- mutagenic call (Test System: AMES SALMONELLA TYPHIMURIUM, Strain/Indicator: TA1537, Metabolic Activation: NONE, Method: STANDARD PLATE): inactive; negative
- mutagenic call (Test System: AMES SALMONELLA TYPHIMURIUM, Strain/Indicator: TA1737, Metabolic Activation: RAT LIVER S-9, PHENOBARBITAL/METHYLCHOLANTHRENE (10%), Method: STANDARD PLATE): inactive; negative

Structure (SMILES): CCn1cc(C(=O)O)c(=O)c2ccc(C)nc21
- mutagenic call (End Point: In vitro micronucleus, Test System: WTK-1 human lymphoma cells, Metabolic Activation: None): inactive; negative
- mutagenic call (Test System: AMES SALMONELLA TYPHIMURIUM, Strain/Indicator: TA97, Metabolic Activation: HAMSTER, LIVER, S-9, AROCLOR 1254 (10% OR 30%), Method: PREINCUBATION): inactive; negative
- mutagenic call (Test System: AMES SALMONELLA TYPHIMURIUM, Strain/Indicator: TA97, Metabolic Activation: HAMSTER, LIVER, S-9, AROCLOR 1254 (10 OR 30%), Method: PREINCUBATION): inactive; negative
- mutagenic call (Test System: AMES SALMONELLA TYPHIMURIUM, Strain/Indicator: TA97, Metabolic Activation: NONE, Method: PREINCUBATION): inactive; negative
- mutagenic call (Test System: AMES SALMONELLA TYPHIMURIUM, Strain/Indicator: TA97, Metabolic Activation: RAT, LIVER, S-9, AROCLOR 1254 (10% OR 30%), Method: PREINCUBATION): inactive; negative
- mutagenic call (Test System: AMES SALMONELLA TYPHIMURIUM, Strain/Indicator: TA97, Metabolic Activation: RAT, LIVER, S-9, AROCLOR 1254 (10 OR 30%), Method: PREINCUBATION): inactive; negative
- mutagenic call (Test System: AMES SALMONELLA TYPHIMURIUM, Strain/Indicator: TA98, Metabolic Activation: HAMSTER, LIVER, S-9, AROCLOR 1254 (10% OR 30%), Method: PREINCUBATION): inactive; negative
- mutagenic call (Test System: AMES SALMONELLA TYPHIMURIUM, Strain/Indicator: TA98, Metabolic Activation: HAMSTER, LIVER, S-9, AROCLOR 1254 (10 OR 30%), Method: PREINCUBATION): inactive; negative
- mutagenic call (Test System: AMES SALMONELLA TYPHIMURIUM, Strain/Indicator: TA98, Metabolic Activation: NONE, Method: PREINCUBATION): inactive; negative
- mutagenic call (Test System: AMES SALMONELLA TYPHIMURIUM, Strain/Indicator: TA98, Metabolic Activation: RAT, LIVER, S-9, AROCLOR 1254 (10% OR 30%), Method: PREINCUBATION): inactive; negative
- mutagenic call (Test System: AMES SALMONELLA TYPHIMURIUM, Strain/Indicator: TA98, Metabolic Activation: RAT, LIVER, S-9, AROCLOR 1254 (10 OR 30%), Method: PREINCUBATION): inactive; negative
- mutagenic call (Test System: AMES SALMONELLA TYPHIMURIUM, Strain/Indicator: TA100, Metabolic Activation: HAMSTER, LIVER, S-9, AROCLOR 1254 (10%), Method: PREINCUBATION): inactive; negative
- mutagenic call (Test System: AMES SALMONELLA TYPHIMURIUM, Strain/Indicator: TA100, Metabolic Activation: HAMSTER, LIVER, S-9, AROCLOR 1254 (30%), Method: PREINCUBATION): inactive; negative
- mutagenic call [3]: inactive; negative
- mutagenic call (Test System: AMES SALMONELLA TYPHIMURIUM, Strain/Indicator: TA100, Metabolic Activation: RAT, LIVER, S-9, AROCLOR 1254 (10% OR 30%), Method: PREINCUBATION): inactive; negative
- mutagenic call (Test System: AMES SALMONELLA TYPHIMURIUM, Strain/Indicator: TA100, Metabolic Activation: RAT, LIVER, S-9, AROCLOR 1254 (10 OR 30%), Method: PREINCUBATION): inactive; negative
- mutagenic call (Test System: AMES SALMONELLA TYPHIMURIUM, Strain/Indicator: TA102, Metabolic Activation: NONE, Method: STANDARD PLATE): active; positive
- mutagenic call (Test System: AMES SALMONELLA TYPHIMURIUM, Strain/Indicator: TA1535, Metabolic Activation: HAMSTER, LIVER, S-9, AROCLOR 1254 (10% OR 30%), Method: PREINCUBATION): inactive; negative
- mutagenic call (Test System: AMES SALMONELLA TYPHIMURIUM, Strain/Indicator: TA1535, Metabolic Activation: HAMSTER, LIVER, S-9, AROCLOR 1254 (10 OR 30%), Method: PREINCUBATION): inactive; negative
- mutagenic call (Test System: AMES SALMONELLA TYPHIMURIUM, Strain/Indicator: TA1535, Metabolic Activation: NONE, Method: PREINCUBATION): inactive; negative
- mutagenic call (Test System: AMES SALMONELLA TYPHIMURIUM, Strain/Indicator: TA1535, Metabolic Activation: RAT, LIVER, S-9, AROCLOR 1254 (10% OR 30%), Method: PREINCUBATION): inactive; negative
- mutagenic call (Test System: AMES SALMONELLA TYPHIMURIUM, Strain/Indicator: TA1535, Metabolic Activation: RAT, LIVER, S-9, AROCLOR 1254 (10 OR 30%), Method: PREINCUBATION): inactive; negative
- mutagenic call (Test System: AMES SALMONELLA TYPHIMURIUM, Strain/Indicator: TA2638, Metabolic Activation: NONE, Method: STANDARD PLATE): inactive; negative
- mutagenic call (Test System: CHINESE HAMSTER V-79, Strain/Indicator: V-79 (HPRT)/6-THIOGUANINE, Metabolic Activation: NONE): inactive; negative
- mutagenic call (Test System: E. COLI, Strain/Indicator: WP2 (PKM101), Metabolic Activation: NONE, Method: STANDARD PLATE): active; positive
- mutagenic call (Test System: E. COLI, Strain/Indicator: WP2 UVRA (PKM101), Metabolic Activation: NONE, Method: STANDARD PLATE): active; positive
- mutagenic call (Test System: MOUSE LYMPHOMA, Strain/Indicator: L5178Y (HPRT)/6-THIOGUANINE, Metabolic Activation: NONE, Method: FLUCTUATION TEST): inactive; negative
- mutagenic call (Test System: MOUSE LYMPHOMA, Strain/Indicator: L5178Y (TK+/TK-), Metabolic Activation: NONE, Method: FLUCTUATION TEST): inactive; negative
- mutagenic call (Test System: MOUSE LYMPHOMA, Strain/Indicator: L5178Y (TK+/TK-), Metabolic Activation: NONE, Method: SUSPENSION/PLATE): inactive; negative
- mutagenic call (Test System: MOUSE LYMPHOMA, Strain/Indicator: L5178Y (TK+/TK-), Metabolic Activation: RAT, LIVER, S-9, AROCLOR 1254, Method: SUSPENSION/PLATE): inactive; negative

Structure (SMILES): Nc1ccc2c(c1)-c1cccc3cccc-2c13
- mutagenic call (Test System: AMES SALMONELLA TYPHIMURIUM, Strain/Indicator: TA98, Metabolic Activation: RAT, LIVER, S-9, AROCLOR 1254 (2 OR 4%), Method: STANDARD PLATE): active; positive
- mutagenic call (Test System: AMES SALMONELLA TYPHIMURIUM, Strain/Indicator: TA100, Metabolic Activation: RAT, LIVER, S-9, AROCLOR 1254 (2%), Method: STANDARD PLATE): active; positive
- mutagenic call (Test System: AMES SALMONELLA TYPHIMURIUM, Strain/Indicator: TA1535, Metabolic Activation: RAT, LIVER, S-9, AROCLOR 1254 (2%), Method: STANDARD PLATE): inactive; negative
- mutagenic call (Test System: AMES SALMONELLA TYPHIMURIUM, Strain/Indicator: TA1537, Metabolic Activation: RAT, LIVER, S-9, AROCLOR 1254 (2%), Method: STANDARD PLATE): active; positive

Structure (SMILES): O=C(O)CCc1c[nH]c2ccccc12
- mutagenic call [3]: inactive; negative

Structure (SMILES): O=[N+]([O-])c1cccc2c1c([N+](=O)[O-])cc1ccccc12
- mutagenic call (Test System: AMES SALMONELLA TYPHIMURIUM, Strain/Indicator: TA98(1,8-DNP6), Metabolic Activation: NONE, Method: STANDARD PLATE): active; positive
- mutagenic call (Test System: AMES SALMONELLA TYPHIMURIUM, Strain/Indicator: TA98(NR), Metabolic Activation: NONE, Method: STANDARD PLATE): active; positive
- mutagenic call [1]: active; positive
- mutagenic call [2]: active; positive
- mutagenic call (Test System: AMES SALMONELLA TYPHIMURIUM, Strain/Indicator: YG1021, Metabolic Activation: NONE, Method: STANDARD PLATE): active; positive
- mutagenic call (Test System: AMES SALMONELLA TYPHIMURIUM, Strain/Indicator: YG1024, Metabolic Activation: NONE, Method: STANDARD PLATE): active; positive
- mutagenic call (Test System: AMES SALMONELLA TYPHIMURIUM, Strain/Indicator: YG1026, Metabolic Activation: NONE, Method: STANDARD PLATE): active; positive
- mutagenic call (Test System: AMES SALMONELLA TYPHIMURIUM, Strain/Indicator: YG1029, Metabolic Activation: NONE, Method: STANDARD PLATE): active; positive
